Measured values from PubChem BioAssay AID2060888 (Molecular Pharmacology Branch, DTP, NCI, 2025).

Tested on: 695427-040-R-J1-PDC complex spheroid viability
Experiment: Anticancer human tumor 695427-040-R-J1-PDC patient-derived colon adenocarcinoma cell line growth inhibition [RAS]
Settings: for IC50: curve of first compound; for viability, T/C: stronger effect = lower value
In short: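 Agents were tested in combination matrices in half-log decrements from a top concentration at or near clinical Cmax (10 microM if undetermined). Targets were multi-cell spheroids of tumour lines plus HUVEC and MSC stromal cells.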

[1] = second compound 0.00316 µM, first compound 0.0316 µM
[2] = second compound 0.00316 µM, first compound 0.1 µM
[3] = second compound 0.00316 µM, first compound 0.316 µM
[4] = second compound 0.00316 µM, first compound 1 µM
[5] = second compound 0.01 µM, first compound 0.0316 µM
[6] = second compound 0.01 µM, first compound 0.1 µM
[7] = second compound 0.01 µM, first compound 0.316 µM
[8] = second compound 0.01 µM, first compound 1 µM
[9] = second compound 0.0316 µM, first compound 0.0316 µM
[10] = second compound 0.0316 µM, first compound 0.1 µM
[11] = second compound 0.0316 µM, first compound 0.316 µM
[12] = second compound 0.0316 µM, first compound 1 µM
[13] = second compound 0.1 µM, first compound 0.0316 µM
[14] = second compound 0.1 µM, first compound 0.1 µM
[15] = second compound 0.1 µM, first compound 0.316 µM
[16] = second compound 0.1 µM, first compound 1 µM
[17] = second compound 0.316 µM, first compound 0.0316 µM
[18] = second compound 0.316 µM, first compound 0.1 µM
[19] = second compound 0.316 µM, first compound 0.316 µM
[20] = second compound 0.316 µM, first compound 1 µM
[21] = second compound 1 µM, first compound 0.0316 µM
[22] = second compound 1 µM, first compound 0.1 µM
[23] = second compound 1 µM, first compound 0.316 µM
[24] = second compound 1 µM, first compound 1 µM
[25] = second compound 0.00316 µM, first compound 0.000949 µM
[26] = second compound 0.00316 µM, first compound 0.003 µM
[27] = second compound 0.00316 µM, first compound 0.00949 µM
[28] = second compound 0.00316 µM, first compound 0.03 µM
[29] = second compound 0.00316 µM, first compound 0.0949 µM
[30] = second compound 0.00316 µM, first compound 0.3 µM
[31] = second compound 0.01 µM, first compound 0.000949 µM
[32] = second compound 0.01 µM, first compound 0.003 µM
[33] = second compound 0.01 µM, first compound 0.00949 µM
[34] = second compound 0.01 µM, first compound 0.03 µM
[35] = second compound 0.01 µM, first compound 0.0949 µM
[36] = second compound 0.01 µM, first compound 0.3 µM
[37] = second compound 0.0316 µM, first compound 0.000949 µM
[38] = second compound 0.0316 µM, first compound 0.003 µM
[39] = second compound 0.0316 µM, first compound 0.00949 µM
[40] = second compound 0.0316 µM, first compound 0.03 µM
[41] = second compound 0.0316 µM, first compound 0.0949 µM
[42] = second compound 0.0316 µM, first compound 0.3 µM
[43] = second compound 0.1 µM, first compound 0.000949 µM
[44] = second compound 0.1 µM, first compound 0.003 µM
[45] = second compound 0.1 µM, first compound 0.00949 µM
[46] = second compound 0.1 µM, first compound 0.03 µM
[47] = second compound 0.1 µM, first compound 0.0949 µM
[48] = second compound 0.1 µM, first compound 0.3 µM
[49] = second compound 0.316 µM, first compound 0.000949 µM
[50] = second compound 0.316 µM, first compound 0.003 µM
[51] = second compound 0.316 µM, first compound 0.00949 µM
[52] = second compound 0.316 µM, first compound 0.03 µM
[53] = second compound 0.316 µM, first compound 0.0949 µM
[54] = second compound 0.316 µM, first compound 0.3 µM
[55] = second compound 1 µM, first compound 0.000949 µM
[56] = second compound 1 µM, first compound 0.003 µM
[57] = second compound 1 µM, first compound 0.00949 µM
[58] = second compound 1 µM, first compound 0.03 µM
[59] = second compound 1 µM, first compound 0.0949 µM
[60] = second compound 1 µM, first compound 0.3 µM
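Further: viability read after seven days of drug exposure.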
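Wherever viability, T/C is given: 100% = DMSO vehicle control viability.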

Compound: CC(=O)OC12COC1CC(O)C1(C)C(=O)C(O)C3=C(C)C(OC(=O)C(O)C(NC(=O)OC(C)(C)C)c4ccccc4)CC(O)(C(OC(=O)c4ccccc4)C21)C3(C)C (stereo not drawn) + C=CC(=O)N1CCN(c2nc(OCC3CCCN3C)nc3c(F)c(-c4nc(N)cc(C)c4C(F)(F)F)c(Cl)cc23)C(C)C1
- IC50 (second compound 0.00316 µM): > 10 µM
- IC50 (second compound 0.01 µM): > 10 µM
- IC50 (second compound 0.0316 µM): > 10 µM
- IC50 (second compound 0.1 µM): > 10 µM
- IC50 (second compound 0.316 µM): > 10 µM
- IC50 (second compound 1 µM): > 10 µM
- viability, T/C [1]: 67.3%
- viability, T/C [2]: 69%
- viability, T/C [3]: 74.2%
- viability, T/C [4]: 78.9%
- viability, T/C (second compound 0.00316 µM, first compound 3.16 µM): 91.5%
- viability, T/C (second compound 0.00316 µM, first compound 10 µM): 98%
- viability, T/C [5]: 71.8%
- viability, T/C [6]: 66.8%
- viability, T/C [7]: 71%
- viability, T/C [8]: 79.7%
- viability, T/C (second compound 0.01 µM, first compound 3.16 µM): 93%
- viability, T/C (second compound 0.01 µM, first compound 10 µM): 89.3%
- viability, T/C [9]: 71%
- viability, T/C [10]: 72.8%
- viability, T/C [11]: 77.2%
- viability, T/C [12]: 78%
- viability, T/C (second compound 0.0316 µM, first compound 3.16 µM): 83.7%
- viability, T/C (second compound 0.0316 µM, first compound 10 µM): 89.5%
- viability, T/C [13]: 70.6%
- viability, T/C [14]: 71.3%
- viability, T/C [15]: 74%
- viability, T/C [16]: 76.2%
- viability, T/C (second compound 0.1 µM, first compound 3.16 µM): 93.6%
- viability, T/C (second compound 0.1 µM, first compound 10 µM): 96.9%
- viability, T/C [17]: 75.2%
- viability, T/C [18]: 73.6%
- viability, T/C [19]: 83.8%
- viability, T/C [20]: 75%
- viability, T/C (second compound 0.316 µM, first compound 3.16 µM): 93.1%
- viability, T/C (second compound 0.316 µM, first compound 10 µM): 95.7%
- viability, T/C [21]: 76.4%
- viability, T/C [22]: 68.5%
- viability, T/C [23]: 77.3%
- viability, T/C [24]: 83.4%
- viability, T/C (second compound 1 µM, first compound 3.16 µM): 88.7%
- viability, T/C (second compound 1 µM, first compound 10 µM): 91.8%

Compound: CC1(C)CCC(Nc2ncc(C(F)(F)F)c(-c3c[nH]c4c(P(C)(C)=O)c(C#N)ccc34)n2)CN1 (stereo not drawn) + C=CC(=O)N1CCN(c2nc(OCC3CCCN3C)nc3c(F)c(-c4nc(N)cc(C)c4C(F)(F)F)c(Cl)cc23)C(C)C1
- IC50 (second compound 0.00316 µM): > 0.3 µM
- IC50 (second compound 0.01 µM): > 0.3 µM
- IC50 (second compound 0.0316 µM): > 0.3 µM
- IC50 (second compound 0.1 µM): > 0.3 µM
- IC50 (second compound 0.316 µM): > 0.3 µM
- IC50 (second compound 1 µM): > 0.3 µM
- viability, T/C [25]: 116%
- viability, T/C [26]: 107%
- viability, T/C [27]: 90.6%
- viability, T/C [28]: 86.5%
- viability, T/C [29]: 84.6%
- viability, T/C [30]: 79.2%
- viability, T/C [31]: 95.8%
- viability, T/C [32]: 93.3%
- viability, T/C [33]: 88.4%
- viability, T/C [34]: 78.8%
- viability, T/C [35]: 82.9%
- viability, T/C [36]: 84.9%
- viability, T/C [37]: 108%
- viability, T/C [38]: 89.9%
- viability, T/C [39]: 96.2%
- viability, T/C [40]: 75.7%
- viability, T/C [41]: 86.9%
- viability, T/C [42]: 77.4%
- viability, T/C [43]: 89.5%
- viability, T/C [44]: 95.4%
- viability, T/C [45]: 101%
- viability, T/C [46]: 84.7%
- viability, T/C [47]: 88%
- viability, T/C [48]: 78.4%
- viability, T/C [49]: 99%
- viability, T/C [50]: 94%
- viability, T/C [51]: 96.3%
- viability, T/C [52]: 83.8%
- viability, T/C [53]: 83.9%
- viability, T/C [54]: 81.1%
- viability, T/C [55]: 90.2%
- viability, T/C [56]: 87.3%
- viability, T/C [57]: 96.3%
- viability, T/C [58]: 78.6%
- viability, T/C [59]: 88.9%
- viability, T/C [60]: 79.2%

Compound: CCc1c2c(nc3ccc(O)cc13)-c1cc3c(c(=O)n1C2)COC(=O)[C@]3(O)CC + C=CC(=O)N1CCN(c2nc(OCC3CCCN3C)nc3c(F)c(-c4nc(N)cc(C)c4C(F)(F)F)c(Cl)cc23)C(C)C1
- IC50 (second compound 0.00316 µM): 0.112 µM
- IC50 (second compound 0.01 µM): 0.123 µM
- IC50 (second compound 0.0316 µM): 0.129 µM
- IC50 (second compound 0.1 µM): 0.128 µM
- IC50 (second compound 0.316 µM): 0.144 µM
- IC50 (second compound 1 µM): 0.162 µM
- viability, T/C [25]: 88%
- viability, T/C [26]: 88.2%
- viability, T/C [27]: 84.8%
- viability, T/C [28]: 74.5%
- viability, T/C [29]: 54.3%
- viability, T/C [30]: 25.5%
- viability, T/C [31]: 98.8%
- viability, T/C [32]: 92.1%
- viability, T/C [33]: 78.7%
- viability, T/C [34]: 72.9%
- viability, T/C [35]: 58.4%
- viability, T/C [36]: 30.9%
- viability, T/C [37]: 92.7%
- viability, T/C [38]: 88.1%
- viability, T/C [39]: 79.4%
- viability, T/C [40]: 75.8%
- viability, T/C [41]: 60.9%
- viability, T/C [42]: 25.6%
- viability, T/C [43]: 94.8%
- viability, T/C [44]: 88.6%
- viability, T/C [45]: 79.3%
- viability, T/C [46]: 68.9%
- viability, T/C [47]: 60%
- viability, T/C [48]: 32%
- viability, T/C [49]: 96%
- viability, T/C [50]: 91.9%
- viability, T/C [51]: 82.7%
- viability, T/C [52]: 80%
- viability, T/C [53]: 63.6%
- viability, T/C [54]: 28.3%
- viability, T/C [55]: 93.2%
- viability, T/C [56]: 93.4%
- viability, T/C [57]: 85.1%
- viability, T/C [58]: 85.3%
- viability, T/C [59]: 62.4%
- viability, T/C [60]: 34.9%

Compound: Nc1ccn(C2OC(CO)C(O)C2(F)F)c(=O)n1 (stereo not drawn) + C=CC(=O)N1CCN(c2nc(OCC3CCCN3C)nc3c(F)c(-c4nc(N)cc(C)c4C(F)(F)F)c(Cl)cc23)C(C)C1
- IC50 (second compound 0.00316 µM): > 1 µM
- IC50 (second compound 0.01 µM): > 1 µM
- IC50 (second compound 0.0316 µM): > 1 µM
- IC50 (second compound 0.1 µM): > 1 µM
- IC50 (second compound 0.316 µM): > 1 µM
- IC50 (second compound 1 µM): > 1 µM
- viability, T/C (second compound 0.00316 µM, first compound 0.00316 µM): 93.3%
- viability, T/C (second compound 0.00316 µM, first compound 0.01 µM): 88.1%
- viability, T/C [1]: 77.5%
- viability, T/C [2]: 84.9%
- viability, T/C [3]: 72.1%
- viability, T/C [4]: 69.6%
- viability, T/C (second compound 0.01 µM, first compound 0.00316 µM): 94.4%
- viability, T/C (second compound 0.01 µM, first compound 0.01 µM): 87.2%
- viability, T/C [5]: 84.3%
- viability, T/C [6]: 74.3%
- viability, T/C [7]: 76.2%
- viability, T/C [8]: 69.5%
- viability, T/C (second compound 0.0316 µM, first compound 0.00316 µM): 92.9%
- viability, T/C (second compound 0.0316 µM, first compound 0.01 µM): 80.5%
- viability, T/C [9]: 77.9%
- viability, T/C [10]: 73.8%
- viability, T/C [11]: 76.5%
- viability, T/C [12]: 70.8%
- viability, T/C (second compound 0.1 µM, first compound 0.00316 µM): 96.9%
- viability, T/C (second compound 0.1 µM, first compound 0.01 µM): 78.4%
- viability, T/C [13]: 77.8%
- viability, T/C [14]: 80.2%
- viability, T/C [15]: 74.2%
- viability, T/C [16]: 72.9%
- viability, T/C (second compound 0.316 µM, first compound 0.00316 µM): 93.8%
- viability, T/C (second compound 0.316 µM, first compound 0.01 µM): 84.2%
- viability, T/C [17]: 91.3%
- viability, T/C [18]: 77.5%
- viability, T/C [19]: 80.4%
- viability, T/C [20]: 69.7%
- viability, T/C (second compound 1 µM, first compound 0.00316 µM): 92.7%
- viability, T/C (second compound 1 µM, first compound 0.01 µM): 85.5%
- viability, T/C [21]: 77.9%
- viability, T/C [22]: 81.5%
- viability, T/C [23]: 86.9%
- viability, T/C [24]: 69.7%
